# Assay results reported in US20250320213A1, “Nitrogen-Containing Heterocyclic Compounds” (Pfizer Inc., priority 2024, published 2025).
# Read-outs that look alike come from different tables or passages of the source.
# Experiments:
# [1] = tested on: CCL17 secretion in peripheral human whole blood; assay: Human Whole Blood (HWB) CCL17 TR-FRET Assay (IL-13 stimulated CCL17 secretion); assay type: cell-based
# Procedure, shortened: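 Heparinized human whole blood was preincubated with compound (11-point, 3-fold series) for 2 h at 37°C, then stimulated with IL-13 (10 ng/mL final) for 48 h. Serum CCL17 was measured by TR-FRET sandwich immunoassay (665/615 nm ratio) after 16 h at room temperature, giving IC50.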
# STAT6 = target: T1, STAT6 (Homo sapiens, UniProt P42226); assay: STAT6 Reporter Luciferase Assay (IL-13 stimulated HaCaT keratinocyte NanoLuc reporter cells); assay type: cell-based; settings: read-out: Reporter EC50
# T1 construct: stably transfected HaCaT keratinocyte cell line, which expresses NanoLuc luciferase reporter gene under the transcriptional control of the STAT6 responsive promoter; endogenous in cells; host or cells: HaCaT keratinocyte reporter cell line (stably transfected with a NanoLuc reporter)
# T1 sequence (P42226 1-847): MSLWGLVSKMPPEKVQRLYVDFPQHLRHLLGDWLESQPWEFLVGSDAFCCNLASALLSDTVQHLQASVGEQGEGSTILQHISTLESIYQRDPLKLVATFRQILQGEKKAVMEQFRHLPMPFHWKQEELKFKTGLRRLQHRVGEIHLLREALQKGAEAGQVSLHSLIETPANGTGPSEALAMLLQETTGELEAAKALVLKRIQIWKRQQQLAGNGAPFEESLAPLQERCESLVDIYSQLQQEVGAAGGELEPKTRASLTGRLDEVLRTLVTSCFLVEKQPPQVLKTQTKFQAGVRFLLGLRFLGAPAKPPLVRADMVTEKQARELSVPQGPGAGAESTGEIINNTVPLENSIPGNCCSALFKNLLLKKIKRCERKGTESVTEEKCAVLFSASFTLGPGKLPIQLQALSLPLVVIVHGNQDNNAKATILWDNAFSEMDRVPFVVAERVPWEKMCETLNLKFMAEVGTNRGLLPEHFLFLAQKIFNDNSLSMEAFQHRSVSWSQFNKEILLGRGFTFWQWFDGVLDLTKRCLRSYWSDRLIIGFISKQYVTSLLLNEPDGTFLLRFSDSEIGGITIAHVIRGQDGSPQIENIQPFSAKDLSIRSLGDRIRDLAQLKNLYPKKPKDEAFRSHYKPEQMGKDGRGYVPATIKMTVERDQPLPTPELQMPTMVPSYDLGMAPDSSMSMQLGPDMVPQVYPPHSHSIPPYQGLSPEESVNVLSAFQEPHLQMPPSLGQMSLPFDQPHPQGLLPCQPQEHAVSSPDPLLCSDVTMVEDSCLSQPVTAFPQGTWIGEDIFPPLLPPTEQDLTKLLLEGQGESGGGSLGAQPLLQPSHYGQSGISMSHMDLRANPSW
# Procedure, shortened: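 HaCaT IL-13Ra2-promoter NanoLuc reporter; cpd 2 h 37 °C in DMEM/2% HI FBS; IL-13 0.12 nM final, 4 h; Nano-Glo luminescence.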
# [2] = Homo sapiens, 48 h, inhibition of CCL17 secretion in human whole blood, 10 ng/mL IL13, 48 hours
# [3] = STAT6 NanoLuc luciferase reporter, IL-13 stimulated HaCaT keratinocyte cells
# [4] = Homo sapiens, 48 h, human whole blood, 10 ng/mL IL13, 48 hours
# [5] = IL-13 stimulated HaCaT STAT6 NanoLuc reporter cells
# [6] = human whole blood, IL-13 stimulated, 48 hours
# [7] = Homo sapiens, 48 h, human whole blood, IL-13 10 ng/mL
# [8] = Homo sapiens, 48 h, human whole blood, IL-13 stimulated
SMILES,"IC50 [1, 2] [nM]",EC50 (STAT6; [3]) [nM],EC50 (STAT6; [5]) [nM],further results
"CC(C)n1nc(C(=O)NCc2ccc(NC(=O)N(C)C)cc2)c2c1CCN(c1ccc(-c3nccn3C)cn1)C2 [Example 45, N-(4-(3,3-Dimethylureido)benzyl)-1-isopropyl-5-(5-(1-methyl-1H-imidazol-2-yl)pyridin-2-yl)-4,5,6,7-tetrahydro-1H-pyrazolo[4,3-c]pyridine-3-carboxamide]",50,4,,
"CC(C)n1nc(C(=O)NCc2ccc(NC(=O)N3CC(F)C3)cc2)c2c1[C@@H](C)CN(c1ccc(C(=O)N(C)C)cn1)C2 [Example 584, (S)-5-(5-(dimethylcarbamoyl)pyridin-2-yl)-N-(4-(3-fluoroazetidine-1-carboxamido)benzyl)-1-isopropyl-7-methyl-4,5,6,7-tetrahydro-1H-pyrazolo[4,3-c]pyridine-3-carboxamide]",,,1,"IC50 [1, 4]: 12 nM"
"CN(C)C(=O)Nc1ccc(CNC(=O)c2csc3c2CN(c2ccc(C(=O)N(C)C)cn2)CC3)cc1 [Example 25, 5-(5-(dimethylcarbamoyl)pyridin-2-yl)-N-(4-(3,3-dimethylureido)benzyl)-4,5,6,7-tetrahydrothieno[3,2-c]pyridine-3-carboxamide]",1490,164,,
"CCC(C)n1nc(C(=O)NCc2ccc(NC(=O)N(C)C)cc2)c2c1[C@@H](C)CN(c1ccc(C(=O)N(C)C)cn1)C2 (single isomer, unassigned) [Example 318, (S)-1-((R*)-sec-butyl)-5-(5-(dimethylcarbamoyl)pyridin-2-yl)-N-(4-(3,3-dimethylureido)benzyl)-7-methyl-4,5,6,7-tetrahydro-1H-pyrazolo[4,3-c]pyridine-3-carboxamide]",,,0.4,"IC50 [1, 6]: 4 nM"
"CC(C)n1nc(C(=O)NCc2ccc(NC(=O)N3CCCC3)cc2)c2c1CCN(c1ccc(C(=O)N(C)C)cn1)C2 [Example 136, 5-(5-(Dimethylcarbamoyl)pyridin-2-yl)-1-isopropyl-N-(4-(pyrrolidine-1-carboxamido)benzyl)-4,5,6,7-tetrahydro-1H-pyrazolo[4,3-c]pyridine-3-carboxamide]",,12,,"IC50 ([1]; inhibition of CCL17 secretion in human whole blood, 10 ng/mL IL13, 48 hours): 196 nM"
"CCC1Cc2c(c(C(=O)NCc3ccc(NC(=O)N(C)C)cc3)nn2C(C)C)CN1c1ccc(C(=O)N(C)C)cn1 (single isomer, unassigned) [Example 267, rel-(R or S)-5-(5-(dimethylcarbamoyl)pyridin-2-yl)-N-(4-(3,3-dimethylureido)benzyl)-6-ethyl-1-isopropyl-4,5,6,7-tetrahydro-1H-pyrazolo[4,3-c]pyridine-3-carboxamide]",,,50,"IC50 [1, 6]: 984 nM"
"Cc1csc(-c2ccc(CNC(=O)c3nn(C(C)C)c4c3CN(c3ccc(C(=O)N(C)C)cc3)C[C@@H]4C)cc2)n1 [Example 729, (S)-5-(4-(dimethylcarbamoyl)phenyl)-1-isopropyl-7-methyl-N-(4-(4-methylthiazol-2-yl)benzyl)-4,5,6,7-tetrahydro-1H-pyrazolo[4,3-c]pyridine-3-carboxamide]",,,683,"IC50 [1, 7]: 4330 nM"
"CN(C)C(=O)Nc1ccc(CNC(=O)c2nn(CC3CCC3)c3c2CN(c2ccc(C(=O)N(C)C)cn2)CC3)cc1 [Example 257, 1-(cyclobutylmethyl)-5-(5-(dimethylcarbamoyl)pyridin-2-yl)-N-(4-(3,3-dimethylureido)benzyl)-4,5,6,7-tetrahydro-1H-pyrazolo[4,3-c]pyridine-3-carboxamide]",,,15,"IC50 [1, 8]: 272 nM"
"CC(C)n1nc(C(=O)NCc2ccc(NC(=O)N3CC4CC(C3)O4)cc2)c2c1CCN(c1ccc(C(=O)N(C)C)cn1)C2 [Example 184, N-(4-((5-(5-(dimethylcarbamoyl)pyridin-2-yl)-1-isopropyl-4,5,6,7-tetrahydro-1H-pyrazolo[4,3-c]pyridine-3-carboxamido)methyl)phenyl)-6-oxa-3-azabicyclo[3.1.1]heptane-3-carboxamide]",,,27,"IC50 [1, 6]: 92 nM"
"CC(C)n1nc(C(=O)NCc2ccc(NC(=O)N(C)C)cc2)c2c1C(O)CN(c1ccc(C(=O)N(C)C)cn1)C2 (racemic) [Example 472, rac-(R)-5-(5-(dimethylcarbamoyl)pyridin-2-yl)-N-(4-(3,3-dimethylureido)benzyl)-7-hydroxy-1-isopropyl-4,5,6,7-tetrahydro-1H-pyrazolo[4,3-c]pyridine-3-carboxamide]",,,41,"IC50 [1, 8]: 120 nM"
"Cc1nccc(-c2ccc(CNC(=O)c3nn(C(C)C)c4c3CN(c3ccc(C(=O)N(C)C)cc3)C[C@@H]4C)cc2)n1 [Example 728, (S)-5-(4-(dimethylcarbamoyl)phenyl)-1-isopropyl-7-methyl-N-(4-(2-methylpyrimidin-4-yl)benzyl)-4,5,6,7-tetrahydro-1H-pyrazolo[4,3-c]pyridine-3-carboxamide]",,,231,"IC50 [1, 7]: 4210 nM"
"CCn1nc(C(=O)NCc2ccc(NC(=O)N(C)C)cc2)c2c1CCN(c1ccc(-c3nccn3C)cn1)C2 [Example 30, N-(4-(3,3-Dimethylureido)benzyl)-1-ethyl-5-(5-(1-methyl-1H-imidazol-2-yl)pyridin-2-yl)-4,5,6,7-tetrahydro-1H-pyrazolo[4,3-c]pyridine-3-carboxamide]",87,5,,
"CC(C)n1nc(C(=O)NCc2ccc(NC(=O)N3CCN4CCC[C@H]4C3)cc2)c2c1[C@@H](C)CN(c1ccc(C(=O)N(C)C)cc1)C2 [Example 575, (S)-5-(4-(dimethylcarbamoyl)phenyl)-1-isopropyl-7-methyl-N-(4-((S)-octahydropyrrolo[1,2-a]pyrazine-2-carboxamido)benzyl)-4,5,6,7-tetrahydro-1H-pyrazolo[4,3-c]pyridine-3-carboxamide]",,,1,"IC50 [1, 4]: 10 nM"
"CNC(=O)Nc1ccc(CNC(=O)c2nn(C(C)C)c3c2CN(c2ccc(C(=O)N(C)C)cn2)CC3)cc1 [Example 134, 5-(5-(dimethylcarbamoyl)pyridin-2-yl)-1-isopropyl-N-(4-(3-methylureido)benzyl)-4,5,6,7-tetrahydro-1H-pyrazolo[4,3-c]pyridine-3-carboxamide]",46,7,,
"CC(C)n1nc(C(=O)NCc2ccc(NC(=O)N(C)C)cc2)c2c1[C@@H](C)CN(c1ncc(-c3nccn3C)cn1)C2 [Example 340, (S)-N-(4-(3,3-dimethylureido)benzyl)-1-isopropyl-7-methyl-5-(5-(1-methyl-1H-imidazol-2-yl)pyrimidin-2-yl)-4,5,6,7-tetrahydro-1H-pyrazolo[4,3-c]pyridine-3-carboxamide]",,,276,"IC50 [1, 8]: 2340 nM"
"CC(C)n1nc(C(=O)NCc2ccc(NC(=O)N(C)C)cn2)c2c1C(C(F)(F)F)CN(c1ccc(C(=O)N(C)C)cn1)C2 (racemic) [Example 121, rac-(R)-5-(5-(dimethylcarbamoyl)pyridin-2-yl)-N-((5-(3,3-dimethylureido)pyridin-2-yl)methyl)-1-isopropyl-7-(trifluoromethyl)-4,5,6,7-tetrahydro-1H-pyrazolo[4,3-c]pyridine-3-carboxamide]",6,1,,
"CN(C)C(=O)Nc1ccc(CNC(=O)c2nc(C(F)(F)F)n3c2CN(c2ccc(-c4nccn4C)cn2)CC3)cc1 [Example 42, N-(4-(3,3-Dimethylureido)benzyl)-7-(5-(1-methyl-1H-imidazol-2-yl)pyridin-2-yl)-3-(trifluoromethyl)-5,6,7,8-tetrahydroimidazo[1,5-a]pyrazine-1-carboxamide]",136,10,,
"CC(C)n1nc(C(=O)NCc2ccc(NC(=O)N3CC[C@@H](C#N)C3)cc2)c2c1CCN(c1ccc(C(=O)N(C)C)cn1)C2 [Example 183, (R)-N-(4-(3-cyanopyrrolidine-1-carboxamido)benzyl)-5-(5-(dimethylcarbamoyl)pyridin-2-yl)-1-isopropyl-4,5,6,7-tetrahydro-1H-pyrazolo[4,3-c]pyridine-3-carboxamide]",,,16,"IC50 [1, 8]: 67 nM"
